Drawing on patent publication US9249145B2, “Heterocyclic derivatives of pyrazol-4-yl-pyrrolo[2,3-d]pyrimidines as janus kinase inhibitors” (Incyte Holdings Corporation, priority 2009, dated 2016), this text covers IC50 for 23 compounds.

The structures appear in SMILES notation. Where a name gives a salt, the structure may show the parent alone. Where only a bound is given, the exact number is not on record here.

Assay [1] has as its target T1, human JAK1 (a.a. 837-1142) (Homo sapiens, UniProt P23458).
T1 construct: The catalytic domains of human JAK1 (a.a. 837-1142); His tag (N); made in house; host or cells: insect cells (baculovirus)
As to the kind of experiment: In vitro JAK kinase assay (HTRF, phosphorylation of biotinylated peptide), JAK1. The class given is biochemical. Conditions: 1 mM ATP; Examples 12-91; read-out: JAK1 IC50 (nM) @ 1 mM ATP. As for the experimental part:
(§1) Compounds herein were tested for inhibitory activity of JAK targets according to the following in vitro assay described in Park et al., Analytical Biochemistry 1999, 269, 94-104. The catalytic domains of human JAK1 (a.a. 837-1142), Jak2 (a.a. 828-1132) and Jak3 (a.a. 781-1124) with an N-terminal His tag were expressed using baculovirus in insect cells and purified. The catalytic activity of JAK1, JAK2 or JAK3 was assayed by measuring the phosphorylation of a biotinylated peptide. The phosphorylated peptide was detected by homogenous time resolved fluorescence (HTRF). IC50s of compounds were measured for each kinase in the 40 microL reactions that contain the enzyme, ATP and 500 nM peptide in 50 mM Tris (pH 7.8) buffer with 100 mM NaCl, 5 mM DTT, and 0.1 mg/mL (0.01%) BSA. The ATP concentration in the reactions was 90 μM for Jak1, 30 μM for Jak2 and 3 μM for Jak3 for Km conditions. For the 1 mM IC50 measurements, ATP concentration in the reactions was 1 mM. Reactions were carried out at room temperature for 1 hr and then stopped with 20 μL 45 mM EDTA, 300 nM SA-APC, 6 nM Eu-Py20 in assay buffer (Perkin Elmer, Boston, Mass.). Binding to the Europium labeled antibody took place for 40 minutes and HTRF signal was measured on a Fusion plate reader (Perkin Elmer, Boston, Mass.). See Tables 1, 2, 3, and 4 for data related to compounds of the invention.
On the technique in general: In TR-FRET formats the signal depends on donor and acceptor labels being close together.

The next assay addresses T2, Jak2 (a.a. 828-1132) (Homo sapiens, UniProt O60674).
T2 construct: Jak2 (a.a. 828-1132); His tag (N); made in house; host or cells: insect cells (baculovirus)
Kind of assay: In vitro JAK kinase assay (HTRF, phosphorylation of biotinylated peptide), JAK2. Particulars: 1 mM ATP; Examples 12-91; read-out: JAK2 IC50 (nM) @ 1 mM ATP. In kind it is biochemical. As for the experimental part: as §1

T1 sequence (P23458 849-1154): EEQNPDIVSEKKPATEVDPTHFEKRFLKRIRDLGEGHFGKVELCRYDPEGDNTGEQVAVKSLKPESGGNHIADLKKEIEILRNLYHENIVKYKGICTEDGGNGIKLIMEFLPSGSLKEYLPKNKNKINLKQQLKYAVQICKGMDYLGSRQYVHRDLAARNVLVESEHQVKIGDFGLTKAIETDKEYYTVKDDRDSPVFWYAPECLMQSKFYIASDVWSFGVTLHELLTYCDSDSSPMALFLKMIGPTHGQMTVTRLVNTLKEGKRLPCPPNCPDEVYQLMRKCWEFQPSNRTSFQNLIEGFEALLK
T2 sequence (O60674 828-1132): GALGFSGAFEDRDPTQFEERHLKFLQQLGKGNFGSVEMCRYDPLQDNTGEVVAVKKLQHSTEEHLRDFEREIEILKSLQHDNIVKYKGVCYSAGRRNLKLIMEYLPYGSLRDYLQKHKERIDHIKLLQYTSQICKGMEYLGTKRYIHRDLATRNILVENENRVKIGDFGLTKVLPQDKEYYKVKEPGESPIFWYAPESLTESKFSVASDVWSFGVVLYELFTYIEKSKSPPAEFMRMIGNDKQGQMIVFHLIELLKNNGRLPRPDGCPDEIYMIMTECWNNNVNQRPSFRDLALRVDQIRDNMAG

On to `N#CCC(CN1CCN(S(=O)(=O)c2ccc3[nH]ncc3c2)CC1)n1cc(-c2ncnc3[nH]ccc23)cn1` (stereo not shown) [Example 22, 4-[4-(1H-indazol-5-ylsulfonyl)piperazin-1-yl]-3-[4-(7H-pyrrolo[2,3-d]pyrimidin-4-yl)-1H-pyrazol-1-yl]butanenitrile], for which the half-maximal inhibitory concentration (IC50) (in assay [1]; on Jak2 (a.a. 828-1132)) was below 10 nM in each case.

With `Cc1cc(F)ccc1NC(=O)N1CCN(CC(CC#N)n2cc(-c3ncnc4[nH]ccc34)cn2)CC1` (stereo not shown) [Example 23, 4-(2-(4-(7H-pyrrolo[2,3-d]pyrimidin-4-yl)-1H-pyrazol-1-yl)-3-cyanopropyl)-N-(4-fluoro-2-methylphenyl)piperazine-1-carboxamide], the IC50 (as a rule, the point on the concentration scale where inhibition reaches its midpoint) is 10 to 50 nM in assay [1] and above 100 nM at Jak2 (a.a. 828-1132).

On to `N#CCC(CN1CCN(C(=O)c2ccc(Cl)cc2F)CC1)n1cc(-c2ncnc3[nH]ccc23)cn1` (stereo not shown) [Example 26, 3-(4-(7H-pyrrolo[2,3-d]pyrimidin-4-yl)-1H-pyrazol-1-yl)-4-(4-(4-chloro-2-fluorobenzoyl)piperazin-1-yl)butanenitrile], for which the IC50 (in assay [1]; on Jak2 (a.a. 828-1132)) was below 10 nM each time.

In the case of `N#CCC(CN1CCN(C(=O)c2c(F)cc(Cl)cc2F)CC1)n1cc(-c2ncnc3[nH]ccc23)cn1` (stereo not shown) [Example 27, 3-(4-(7H-pyrrolo[2,3-d]pyrimidin-4-yl)-1H-pyrazol-1-yl)-4-(4-(4-chloro-2,6-difluorobenzoyl)piperazin-1-yl)butanenitrile], the IC50 (in assay [1]; at Jak2 (a.a. 828-1132)) was below 10 nM throughout.

For `Cc1ccc(C(=O)N2CCN(CC(CC#N)n3cc(-c4ncnc5[nH]ccc45)cn3)CC2)c(F)c1` (stereo not shown) [Example 28, 3-(4-(7H-pyrrolo[2,3-d]pyrimidin-4-yl)-1H-pyrazol-1-yl)-4-(4-(2-fluoro-4-methylbenzoyl)piperazin-1-yl)butanenitrile], the IC50 (in assay [1]; at Jak2 (a.a. 828-1132)) was below 10 nM each time.

With `N#CCC(CN1CCN(C(=O)c2c(F)cc(F)cc2F)CC1)n1cc(-c2ncnc3[nH]ccc23)cn1` (stereo not shown) [Example 29, 3-(4-(7H-pyrrolo[2,3-d]pyrimidin-4-yl)-1H-pyrazol-1-yl)-4-(4-(2,4,6-trifluorobenzoyl)piperazin-1-yl)butanenitrile], the IC50 (in assay [1]; at Jak2 (a.a. 828-1132)) was below 10 nM throughout.

Turning to `N#CCC(CN1CCN(C(=O)c2ccc(F)cc2F)CC1)n1cc(-c2ncnc3[nH]ccc23)cn1` (stereo not shown) [Example 30, 3-(4-(7H-pyrrolo[2,3-d]pyrimidin-4-yl)-1H-pyrazol-1-yl)-4-(4-(2,4-difluorobenzoyl)piperazin-1-yl)butanenitrile], the IC50 (in assay [1]; at Jak2 (a.a. 828-1132)) was below 10 nM each time.

`N#CCC(CN1CCN(C(=O)c2ccc(O)cc2F)CC1)n1cc(-c2ncnc3[nH]ccc23)cn1` (stereo not shown) [Example 31, 3-(4-(7H-pyrrolo[2,3-d]pyrimidin-4-yl)-1H-pyrazol-1-yl)-4-(4-(2-fluoro-4-hydroxybenzoyl)piperazin-1-yl)butanenitrile trifluoroacetate salt]: the half-maximal inhibitory concentration (IC50) in assay [1] is below 10 nM; on Jak2 (a.a. 828-1132), 10 to 50 nM.

`N#CCC(CN1CCN(C(=O)c2cc(C(F)(F)F)ccc2F)CC1)n1cc(-c2ncnc3[nH]ccc23)cn1` (stereo not shown) [Example 32, 3-(4-(7H-pyrrolo[2,3-d]pyrimidin-4-yl)-1H-pyrazol-1-yl)-4-(4-(2-fluoro-5-(trifluoromethyl)benzoyl)piperazin-1-yl)butanenitrile]: the IC50 (in assay [1]; on Jak2 (a.a. 828-1132)) was below 10 nM throughout.

With `N#CCC(CN1CCN(C(=O)c2cccc(F)c2F)CC1)n1cc(-c2ncnc3[nH]ccc23)cn1` (stereo not shown) [Example 33, 3-(4-(7H-pyrrolo[2,3-d]pyrimidin-4-yl)-1H-pyrazol-1-yl)-4-(4-(2,3-difluorobenzoyl)piperazin-1-yl)butanenitrile], the half-maximal inhibitory concentration (IC50) (in assay [1]; at Jak2 (a.a. 828-1132)) was below 10 nM each time.

Consider `COc1ccc(C(=O)N2CCN(CC(CC#N)n3cc(-c4ncnc5[nH]ccc45)cn3)CC2)c(F)c1F` (stereo not shown) [Example 34, 3-(4-(7H-pyrrolo[2,3-d]pyrimidin-4-yl)-1H-pyrazol-1-yl)-4-(4-(2,3-difluoro-4-methoxybenzoyl)piperazin-1-yl)butanenitrile], for which the IC50 in assay [1] was below 10 nM; on Jak2 (a.a. 828-1132), 10 to 50 nM.

With `N#CCC(CN1CCN(C(=O)c2c(O)cccc2F)CC1)n1cc(-c2ncnc3[nH]ccc23)cn1` (stereo not shown) [Example 35, 3-(4-(7H-pyrrolo[2,3-d]pyrimidin-4-yl)-1H-pyrazol-1-yl)-4-(4-(2-fluoro-6-hydroxybenzoyl)piperazin-1-yl)butanenitrile], the IC50 (in assay [1]; on Jak2 (a.a. 828-1132)) was below 10 nM throughout.

In the case of `N#CCC(CN1CCN(C(=O)c2ccc(F)cc2)CC1)n1cc(-c2ncnc3[nH]ccc23)cn1` (stereo not shown) [Example 36, 3-(4-(7H-pyrrolo[2,3-d]pyrimidin-4-yl)-1H-pyrazol-1-yl)-4-(4-(4-fluorobenzoyl)piperazin-1-yl)butanenitrile], the IC50 in assay [1] was below 10 nM; on Jak2 (a.a. 828-1132), 10 to 50 nM.

Regarding `Cc1cc(C(=O)N2CCN(CC(CC#N)n3cc(-c4ncnc5[nH]ccc45)cn3)CC2)ccc1F` (stereo not shown) [Example 37, 3-(4-(7H-pyrrolo[2,3-d]pyrimidin-4-yl)-1H-pyrazol-1-yl)-4-(4-(4-fluoro-3-methylbenzoyl)piperazin-1-yl)butanenitrile], the IC50 in assay [1] was below 10 nM; at Jak2 (a.a. 828-1132), 10 to 50 nM.

Turning to `N#CCC(CN1CCN(C(=O)c2ccc(Cl)cn2)CC1)n1cc(-c2ncnc3[nH]ccc23)cn1` (stereo not shown) [Example 38, 3-(4-(7H-pyrrolo[2,3-d]pyrimidin-4-yl)-1H-pyrazol-1-yl)-4-(4-(5-chloropicolinoyl)piperazin-1-yl)butanenitrile], the IC50 is below 10 nM in assay [1] and 10 to 50 nM on Jak2 (a.a. 828-1132).

As for `N#CCC(CN1CCN(C(=O)c2ccc(F)cc2Cl)CC1)n1cc(-c2ncnc3[nH]ccc23)cn1` (stereo not shown) [Example 39, 3-(4-(7H-pyrrolo[2,3-d]pyrimidin-4-yl)-1H-pyrazol-1-yl)-4-(4-(2-chloro-4-fluorobenzoyl)piperazin-1-yl)butanenitrile], the IC50 in assay [1] is below 10 nM; on Jak2 (a.a. 828-1132) it was 10 to 50 nM.

On to `N#CCC(CN1CCN(C(=O)c2ncc(F)cc2F)CC1)n1cc(-c2ncnc3[nH]ccc23)cn1` (stereo not shown) [Example 40, 3-(4-(7H-pyrrolo[2,3-d]pyrimidin-4-yl)-1H-pyrazol-1-yl)-4-(4-(3,5-difluoropicolinoyl)piperazin-1-yl)butanenitrile], for which the concentration for half-maximal inhibition (IC50) in assay [1] was below 10 nM; on Jak2 (a.a. 828-1132) it was 10 to 50 nM.

For `N#CCC(CN1CCN(C(=O)c2cc(OC(F)(F)F)ccc2F)CC1)n1cc(-c2ncnc3[nH]ccc23)cn1` (stereo not shown) [Example 41, 3-(4-(7H-pyrrolo[2,3-d]pyrimidin-4-yl)-1H-pyrazol-1-yl)-4-(4-(2-fluoro-5-(trifluoromethoxy)benzoyl)piperazin-1-yl)butanenitrile], the half-inhibitory concentration (IC50) was below 10 nM in assay [1] and 10 to 50 nM at Jak2 (a.a. 828-1132).

Turning to `N#CCC(CN1CCN(C(=O)c2cccs2)CC1)n1cc(-c2ncnc3[nH]ccc23)cn1` (stereo not shown) [Example 42, 3-(4-(7H-pyrrolo[2,3-d]pyrimidin-4-yl)-1H-pyrazol-1-yl)-4-(4-(thiophene-2-carbonyl)piperazin-1-yl)butanenitrile], the concentration for half-maximal inhibition (IC50) in assay [1] is below 10 nM; at Jak2 (a.a. 828-1132) it was 10 to 50 nM.

`COc1cc(C(=O)N2CCN(CC(CC#N)n3cc(-c4ncnc5[nH]ccc45)cn3)CC2)ccc1F` (stereo not shown) [Example 43, 3-(4-(7H-pyrrolo[2,3-d]pyrimidin-4-yl)-1H-pyrazol-1-yl)-4-(4-(4-fluoro-3-methoxybenzoyl)piperazin-1-yl)butanenitrile]: the IC50 in assay [1] is below 10 nM; on Jak2 (a.a. 828-1132), 10 to 50 nM.

Consider `COc1ccc(C(=O)N2CCN(CC(CC#N)n3cc(-c4ncnc5[nH]ccc45)cn3)CC2)cc1Cl` (stereo not shown) [Example 44, 3-(4-(7H-pyrrolo[2,3-d]pyrimidin-4-yl)-1H-pyrazol-1-yl)-4-(4-(3-chloro-4-methoxybenzoyl)piperazin-1-yl)butanenitrile trifluoroacetate salt], for which the concentration for half-maximal inhibition (IC50) is below 10 nM in assay [1] and 10 to 50 nM on Jak2 (a.a. 828-1132).

`N#CCC(CN1CCN(C(=O)c2ccc(C(F)(F)F)cc2F)CC1)n1cc(-c2ncnc3[nH]ccc23)cn1` (stereo not shown) [Example 45, 3-(4-(7H-pyrrolo[2,3-d]pyrimidin-4-yl)-1H-pyrazol-1-yl)-4-(4-(2-fluoro-4-(trifluoromethyl)benzoyl)piperazin-1-yl)butanenitrile trifluoroacetate salt]: the IC50 in assay [1] was below 10 nM; on Jak2 (a.a. 828-1132), 10 to 50 nM.

On to `N#CCC(CN1CCN(C(=O)c2cc(F)cc(Cl)c2)CC1)n1cc(-c2ncnc3[nH]ccc23)cn1` (stereo not shown) [Example 46, 3-(4-(7H-pyrrolo[2,3-d]pyrimidin-4-yl)-1H-pyrazol-1-yl)-4-(4-(3-chloro-5-fluorobenzoyl)piperazin-1-yl)butanenitrile trifluoroacetate salt], for which the IC50 in assay [1] is below 10 nM; at Jak2 (a.a. 828-1132) it was 10 to 50 nM.
